US8178077B2, “Drug development target protein and target gene, and method of screening” (Reverse Proteomics Research Institute Co., Ltd., priority 2004, dated 2012)

Biological target: T1, FLJ39196 clone-derived protein (human neurocalcin δ) (Homo sapiens, UniProt P61601)
T1 construct: A human full-length cDNA clone was expressed as a protein with an N-terminal His tag; His tag (N); made in house; host or cells: Escherichia coli BL21star(DE3)pLysS (pDEST17 Gateway expression plasmid)
Test: SEC/MS interaction analysis (size exclusion spin column and mass analysis) with FLJ39196 clone-derived protein
Assay type: binding
Excerpt: To analyze the interactions between commonly used drugs and proteins expressed from human full-length cDNA clones while keeping both the proteins and the compounds in non-modified, non-immobilized state, size exclusion chromatography (SEC) and mass analysis were used in combination (FIGS. 1, 2). The specific procedures are shown below.
The compound-protein mixture prepared in step 1 was subjected to chromatography using an SEC column, the compound and the protein were separated by SEC, and the compound that interacted with the bound compound or protein contained in the protein fraction was analyzed using a mass analyzer.
Protein concentrations were measured using BCA Protein Assay (PIERCE), in consideration of the purity calculated by SDS-PAGE.
Mass analysis was performed using LCQ DECA XP (Thermoelectron) or Q-TOFmicro (Micromass), equipped with an ESI probe. The LC pump used was Agilent 1100 (Yokogawa Analytical Systems), and the autosampler used was HTC-PAL (CTC Analytics) equipped with a cooling stacker.
In the SEC method using 384-well spin columns, Unifilter 100 (Whatman), packed with 10 μL (dry volume) of Bio-Gel P6 (BIO-RAD) and swollen with milliQ water, was used as the SEC column. 13.3 μL of a protein-free reference standard or a 25 μM protein standard and 0.7 μL of a multiplied liquid comprising 25 μM of each pharmaceutical compound (5% DMSO aqueous solution) were mixed; 9 μL of this mixture was aliquoted into the SEC spin columns. The SEC spin column was mounted on an acetonitrile-aliquoted 384-well U-bottom plate and centrifuged; the SEC spin column filtrate, which is a protein fraction, was retrieved in 50% acetonitrile. The protein precipitate produced by the acetonitrile was removed via centrifugation and filtration for deproteinization; the resulting filtrate was concentrated by centrifugation and re-dissolved in 10 μL of 50% methanol to obtain a mass analysis sample. The mobile phase supplied to the mass analyzer was 0.1% formic acid/50% methanol solution in the positive ion mode, and 0.1% ammonia/50% methanol solution in the negative ion mode; these mobile phases were used at a flow rate of 40 μL/min. 2-μL of mass analysis samples were injected using an autosampler at 2-minute intervals; the mass spectral intensity of the compound was measured to obtain the spectral intensity of the pharmaceutical compound contained in the SEC spin column filtrate (protein fraction eluted from SEC).

[1] = protein 0 μM (protein-free reference), compound 1 μM
[2] = protein 0 μM (protein-free reference), compound 10 μM
[3] = protein 0 μM (protein-free reference), compound 100 μM
[4] = protein 0 μM (protein-free reference), compound 250 μM
[5] = protein 23.75 μM, compound 1 μM
[6] = protein 23.75 μM, compound 10 μM
[7] = protein 23.75 μM, compound 100 μM
[8] = protein 23.75 μM, compound 250 μM
[9] = protein 47.5 μM, compound 10 μM
[10] = protein 47.5 μM, compound 100 μM
[11] = protein 47.5 μM, compound 250 μM

CC(C)[C@@]1(NC(=O)[C@@H]2C[C@@H]3c4cccc5[nH]cc(c45)C[C@H]3N(C)C2)O[C@@]2(O)[C@@H]3CCCN3C(=O)[C@H](Cc3ccccc3)N2C1=O [Dihydroergocristine]
spectral intensity of the compound in the SEC spin column filtrate (protein fraction) [1]: 25663523
spectral intensity of the compound in the SEC spin column filtrate (protein fraction) [2]: 10810305
spectral intensity of the compound in the SEC spin column filtrate (protein fraction) [3]: 75466444
spectral intensity of the compound in the SEC spin column filtrate (protein fraction) [4]: 137535150
spectral intensity of the compound in the SEC spin column filtrate (protein fraction) [5]: 68120944
spectral intensity of the compound in the SEC spin column filtrate (protein fraction) [6]: 327393156
spectral intensity of the compound in the SEC spin column filtrate (protein fraction) [7]: 910395859
spectral intensity of the compound in the SEC spin column filtrate (protein fraction) [8]: 871970698
spectral intensity of the compound in the SEC spin column filtrate (protein fraction) (protein 47.5 μM, compound 1 μM): 95970671
spectral intensity of the compound in the SEC spin column filtrate (protein fraction) [9]: 593118709
spectral intensity of the compound in the SEC spin column filtrate (protein fraction) [10]: 1961163889
spectral intensity of the compound in the SEC spin column filtrate (protein fraction) [11]: 2985742521

CC(NCCC(c1ccccc1)c1ccccc1)c1ccccc1 (stereo not drawn) [Fendiline]
spectral intensity of the compound in the SEC spin column filtrate (protein fraction) [1]: 18341826
spectral intensity of the compound in the SEC spin column filtrate (protein fraction) [2]: 21106520
spectral intensity of the compound in the SEC spin column filtrate (protein fraction) [3]: 134902492
spectral intensity of the compound in the SEC spin column filtrate (protein fraction) [4]: 315067466
spectral intensity of the compound in the SEC spin column filtrate (protein fraction) [5]: 15884361
spectral intensity of the compound in the SEC spin column filtrate (protein fraction) [6]: 18323956
spectral intensity of the compound in the SEC spin column filtrate (protein fraction) [7]: 118321460
spectral intensity of the compound in the SEC spin column filtrate (protein fraction) [8]: 396979100
spectral intensity of the compound in the SEC spin column filtrate (protein fraction) (protein 47.5 μM, compound 1 μM): 24572438
spectral intensity of the compound in the SEC spin column filtrate (protein fraction) [9]: 26691498
spectral intensity of the compound in the SEC spin column filtrate (protein fraction) [10]: 256481478
spectral intensity of the compound in the SEC spin column filtrate (protein fraction) [11]: 565679716

CN(C)CC/C=C1/c2ccccc2Sc2ccc(Cl)cc21 [Chlorprothixene]
spectral intensity of the compound in the SEC spin column filtrate (protein fraction) [1]: 12908294
spectral intensity of the compound in the SEC spin column filtrate (protein fraction) [2]: 15368592
spectral intensity of the compound in the SEC spin column filtrate (protein fraction) [3]: 30558420
spectral intensity of the compound in the SEC spin column filtrate (protein fraction) [4]: 80321853
spectral intensity of the compound in the SEC spin column filtrate (protein fraction) [5]: 21615977
spectral intensity of the compound in the SEC spin column filtrate (protein fraction) [6]: 31548696
spectral intensity of the compound in the SEC spin column filtrate (protein fraction) [7]: 104338961
spectral intensity of the compound in the SEC spin column filtrate (protein fraction) [8]: 243359670
spectral intensity of the compound in the SEC spin column filtrate (protein fraction) (protein 47.5 μM, compound 1 μM): 25013147
spectral intensity of the compound in the SEC spin column filtrate (protein fraction) [9]: 52145413
spectral intensity of the compound in the SEC spin column filtrate (protein fraction) [10]: 207034486
spectral intensity of the compound in the SEC spin column filtrate (protein fraction) [11]: 433637183
